This note sets out measurements from patent US8377934B2, “Use of stilbene derivatives for treatment and prevention of aquatic mold infections” (State of Israel, Ministry of Agriculture & Rural …, priority 2006, dated 2013).

In brackets after ≈: the same amount, converted by molar mass.

In data set [1] the test system is various fish species. The experiment in a line: Toxicity testing in various fish species. The format is in vivo. The following applies: all five fish species tested, 15° C., up to 96 h. The method, then: LC50 values for Blankophor® BA in various fish species were determined as in Example 2, except that fish were acclimated to 21° C. for three weeks, and then to 15° C. for another two weeks before the initiation of the experiment. Following acclimation to 15° C., Blankophor® BA (100, 200, 500, 1,000 or 2,000 mg/L) was added to the tanks, and mortality of fish was recorded up to 96 h. […] The fish used were: hybrid tilapia (Oreochromis niloticus X O. aureus), average weight 20 g; grey mullet (Mugil cephalus), average weight 70 g; common carp (Cyprinus carpio), average weight 25 g; hybrid striped bass (Morone saxatilis X M. chrysops), average weight 25 g, and grass carp (Ctenopharyngodon idella), average weight 25 g.

In data set [2] the test system is Microcystis. The experiment in a line: Delayed Fluorescent Excitation Spectroscopy (DFES) of pure algal culture. The format is cell-based, Microcystis sp. The following applies: 100 mg/L. The text has this:
(§1) The Delayed Fluorescent Excitation Spectroscopy (DFES) method was used for qualitative and quantitative assessment of the influence of Blankophor® BA on the natural population of phytoplankton, and on specific algae strains. Delayed fluorescence is a unique characteristic of photosynthetically active cells, as it is an outcome of recombination that takes place in the thylakoids in the dark (Yacobi Y. Z., V. Gerhardt, Y. Gonen-Zurgil, and A. Sukenik. 1998. Delayed fluorescence excitation spectroscopy: a rapid method for the qualitative and quantitative assessment of natural population of phytoplankton. Wat. Res. 00:1-6).
(§2) Samples from Lake Kinneret and pure cultures of Peridinium sp. and Microcystis sp. were exposed to Blankophor® BA (100 mg/L), for a few minutes and the concentration of chlorophyll-a was determined (in duplicate) according to the excitation spectrum examined (range from 400 to 730 nm). In addition, the exposed and non-exposed samples were assessed for carbon uptake with a ^14C technique.

In data set [3] the test system is Gyrodactilus sp. and Trichodina sp. The experiment in a line: Non-randomized field trial in a cement pond, concurrent parasitic disease. The format is in vivo, hybrid tilapia. The settings on record: 50 mg/L, 3 treatments of 8 h at 48 h intervals; 2 days after end. The method, then: Following transfer of 2000 hybrid tilapia fish (20-30 g) to a cement pond (1×10^5 L, 21 to 25° C.), white patches of filamentous mycelium were observed on the body and fins of fish, covering in most cases about 80% of the body surface. The mycelia appeared about four days after the transfer, presumably due to opportunistic infection by Saprolegnia sp. following handling stress. Death of 20 to 30 fish per day was recorded. All the dead fish were covered with mycelium, characteristic of Saprolegnia sp., and were also found to be infected with the parasites Gyrodactilus sp. and Trichodina sp.
The water capacity in the pond was decreased to 3×10^4 L, and treatment with Blankophor® BA (50 mg/L) was initiated. A regimen of 3 treatments (8 h each) with 48 hours intervals between them was used.

Data set [4] concerns Lake Kinneret water samples. The experiment in a line: Delayed Fluorescent Excitation Spectroscopy (DFES) of natural phytoplankton. The format is cell-based. The settings on record: 100 mg/L; 4.6 μg/L prior to exposure.
Source text: as §1, §2

The subject of data set [5] is Chlorella, Microcystis, Peridinium, Melosira and Lake Kinneret samples. In words: 14C-carbon uptake study of photosynthetic activity. The format is cell-based, phytoplankton. The following applies: 100 mg/L. The method, then: FIG. 6 illustrates the effect of exposure to Blankophor® BA (100 mg/L) (□) on photosynthetic activity in pure cultures of Chlorella (C), Microcystis (M), Peridinium (P) and Melosira (Me), and in samples from Lake Kinneret (LK), as determined by ^14C-uptake. Control, (▪).
as §2

Data set [6] relates to tilapia. In words: in vivo. The settings on record: for LC50: tilapia, mortality up to 96 h. The method, then:
LC50 values were determined by static short-term tests as a measure of the relative acute lethal toxicity for tilapia (Standard methods for the evaluation of water and wastewater (1985) 16th ed. American Public Health Association, Washington, D.C. p. 689-819).
Hybrid tilapia (Oreochromis niloticus X Oreochromis aureus) having an average weight of 20 g, were kept in 100 liter polyethylene tanks at a density of 1 fish per 10 liters, at a constant temperature of 21° C. for three weeks before the initiation of the experiment by addition of a test compound to each tank. […] For the latter experiments, fish were acclimated to the required temperature for three weeks prior to addition of the test compound to the tank. Fish were treated with 5 different concentrations of each test compound, determined according to the MIC values of each compound.
Mortality of fish was recorded up to 96 h. Water parameters (O2, NH4^+, NO2^−, pH and Cl^−) were monitored throughout the experiment and were maintained within acceptable limits. The presented results are the mean of two separate experiments.

In data set [7] the test system is Daphnia sp. The experiment in a line: Toxicity to zooplankton (motility). The format is in vivo. The settings on record: 100 and 1,000 mg/L, 48 h. Here is the method:
Daphnia sp. is a small (0.2 to 5 mm in length) planktonic crustacean, commonly used as a model for aquatic toxicity.
Daphnia (˜1,000 […]/L water) was exposed to Blankophor® BA 100 and 1,000 mg/L). The experiment was carried out in covered flasks (100 ml/per flask), equipped with air supply. The flasks were incubated at room temperature for 48 h, and the Daphnia motility was recorded.

In data set [8] the test system is S. parasitica T-1. The experiment in a line: Broth macrodilution susceptibility testing (zoospores and cysts). The format is cell-based, Saprolegnia parasitica. The following applies: 24 h. The method, then:
(§3) Two methods were used, each suitable for a different phase of the asexual life cycle of Saprolegnia spp.: i) the broth macrodilution method, for determination of susceptibility of zoospores and cysts; and ii) the agar-dilution method for determination of susceptibility of filamentous hyphae. Each compound was tested three times in each method. Malachite Green was used as positive control.
(§4) This method is a modification of the method used for molds according to EUCAST 7.1 (European Committee on Antibiotic Susceptibility Testing) and CLSI/NCCLS M27-A2 (Clinical Laboratory Standards Institute/National Committee for Clinical Laboratory Standards). For inoculum preparation, S. parasitica isolates were cultured on GP-PS for 7 days with sterile clover seeds at 18° C. […] Cysts and zoospores free from hyphae were collected, and an inoculum of ˜10^3 CFU/ml as measured by hemacytometer counting, was prepared in RPMI. Fluorescent Brightener 28 stock solution was prepared by adding 40% KOH gradually to a 10 mg/ml solution in water, until it was clear, then it was filtered twice through a 0.2 μm cellulose acetate nonpyrogenic sterile filter (Schleicher & Schuell, Dassel, Germany).
(§5) Final drug concentrations in the test tubes ranged from 1×10^4 to 0.01 mg/L. Inoculum of 0.9 ml was added to each of a sterile tube containing 0.1 ml of the serially diluted drug. Two tubes containing drug-free medium and two tubes containing drug-free inoculum were used as controls. The inoculated tubes were incubated at room temperature (15-20° C.) for 24 h. The growth in each tube was then evaluated visually.

In data set [9] the test system is S. parasitica CBS 540.67. Described as above. The format is cell-based, Saprolegnia parasitica. Here is the method: as §3, §4, §5

Regarding `O=S(=O)([O-])c1cc(Nc2nc(Nc3ccccc3)nc(N(CCO)CCO)n2)ccc1C=Cc1ccc(Nc2nc(Nc3ccccc3)nc(N(CCO)CCO)n2)cc1S(=O)(=O)[O-].[K+].[Na+]` [Blankophor® BA], the LC50 result in data set [1] was “greater than 2000 mg/L”; in data set [6] (15° C.) it was >2,000 mg/L; in [6] (18° C.), >2,000 mg/L; in [6] (25° C.), >2,000 mg/L. The “photosynthetic activity versus non-treated samples” value in [2] was “no difference”. Besides, the “presence of parasites on visual and microscopic examination” value in data set [3] is on record as “free of”. In addition, the “total chlorophyll concentration (average)” value in data set [4] was determined as 9.2 µg/L. In addition, the “photosynthetic activity (14C-carbon uptake)” value in data set [5] is “did not decrease”. For the same molecule, the Toxicity result in [6] (Table 4 summary) is reported as “Low (low = >1000 ppm)”. In addition, the “Daphnia motility versus non-exposed control” value in data set [7] was “no difference”. Also, the “MIC, Macrodilution” value in [8] (S. parasitica T-1, 15-20° C., geometric mean of three tests) is 100 µg/mL; in [9] (S. parasitica CBS 540.67, 24 h, 15-20° C., geometric mean of three tests), 200 µg/mL.
As a reminder, the MIC is the smallest concentration in the dilution series that meets the test's criterion for growth inhibition. `C=O` [Formaldehyde]: in data set [6] (in vivo), the Toxicity entry was “Moderate (key: High: high = 50 ppm; Moderate: moderate = 50-200 ppm; Low: low = >1000 ppm)”. Further, the minimum inhibitory concentration (MIC) in data set [8] (Saprolegnia parasitica, read-out: MIC, Macrodilution) came to 100 µg/mL (≈ 3.33 mM); in [9] (Saprolegnia parasitica, CBS540, 24 h, read-out: MIC, Macrodilution) it was 100 µg/mL (≈ 3.33 mM).
